The test system of assay [1] is STING / IRF pathway in THP1-Dual cells. Put plainly: STING THP1 Reporter Assay, IRF pathway (secreted Lucia luciferase, QUANTI-Luc). The assay is classed as cell-based. The settings on record: 10% human plasma, 100% activation = 100 μM cGAMP, luciferase readout, read-out: THP1 Reporter Assays EC50 IRF3. The source says:
(§1) THP1-Dual™ cells were derived from the human THP-1 monocyte cell line by stable integration of two inducible reporter constructs. To this end, THP1-Dual™ cells allow the simultaneous study of the […], by monitoring the activity of SEAP, and the IRF pathway by assessing the activity of a secreted luciferase (Lucia). Both reporter proteins are readily measurable in the cell culture supernatant when using QUANTI-Blue™, a SEAP detection reagent, and QUANTI-Luc™, a luciferase detection reagent.
(§2) THP1-Dual™ cells induce the activation of NF-κB in response to STING agonists. They also trigger the IRF pathway upon stimulation with STING agonists, such as cGAMP. Here, the THP-1-Dual cells were used to assess STING binders for function on the cellular level.
(§3) Serial dilutions of compounds in DMSO were added to low volume 384 well plates at 100 nl/well using an ECHO acoustic dispenser (Labcyte, model 550) to achieve final starting concentration of 100 μM in cell suspension. THP-1 Dual™ STING reporter cells (Invivogen, Dual cells cat #THPD-nfis) were added to the plates with compounds at 15,000 cells in 10 μL per well in RPMI media (Gibco, cat #11875) containing 10% human plasma in a low volume 384-well black wall clear bottom tissue culture plate (Corning, cat #3542) for SEAP assay and low volume solid white plate (Corning, cat #3826) for luciferase assay. One column of the plate was reserved for treatment with cGAMP at 100 μM for 100% activation calculation and one column for no treatment (DMSO only) for baseline activation. Plates were then incubated in 37 OC incubator at 5% CO2 for 20 hours.
(§4) In the SEAP assay, […] 2× QuantiBlue (Invivogen, cat #Rep-qb2) is added to 384 well black plates seeded with THP1 cells and incubated at 37° C. for 2 hours. Plates were read on the Envision (Perkin Elmer) at 620 nm wavelength (OD620). In the luciferase assay, 5 μl of Quantiluc (Invivogen, Rep-qlc2) is added to white 384 well plates seeded with THP1 cells and read at 5 minutes on the Envision (Perkin Elmer) using a luminescence protocol (RLU). For both cell lines, 100% activation was determined by value (RLU) of THP-1 Dual STING cells stimulated with 100 μM cGAMP (Invivogen, cat #TLRL-NACGA23-5).
On the technique in general: Reporter assays use an easily measured gene product as a stand-in for the process of interest.

Assay [2] relates to STING / NF-κB pathway in THP1-Dual cells. The assay can be described thus: STING THP1 Reporter Assay, NF-κB pathway (SEAP, QUANTI-Blue). Conditions: 10% human plasma, 100% activation = 100 μM cGAMP, SEAP readout, read-out: THP1 Reporter Assays EC50 NFkB. The assay is classed as cell-based.
Description: as §1, §2, §3, §4

Assay [3] addresses T1, STING WT (His-TVMV-S-hSTING(155-341)-H232R) (Homo sapiens, UniProt Q86WV6, H232R).
T1 construct: STING WT: His-TVMV-S-hSTING(155-341)-H232R
Put plainly: STING HTRF binding assay (time resolved FRET competition), STING WT. The settings on record: 20 nM His-tagged STING WT cytoplasmic domain, 200 nM fluorescein-labeled cGAMP analog probe, one hour; read-out: HTRF Binding Assays IC50 WT. On the procedure: (§5) A time resolved FRET-based competition binding assay was used to assess test article binding to STING WT and STING AQ. His-tagged STING cytoplasmic domain (WT or AQ) at a concentration of 20 nM was incubated with 2.5 nM Tb-labeled anti-His antibody, test compound, and fluorescein-labeled cGAMP analog probe (BioLog cat. no. C195) at a concentration of 200 nM (STING WT) or 40 nM (STING AQ) in PBS containing 0.005% Tween-20 and 0.1% BSA for one hour. Fluorescence at 495 nm and 520 nm was measured using an EnVision microplate reader to quantify FRET between Tb-labeled anti-His antibody and fluorescein-labeled probe. Background was defined as the signal obtained in the absence of STING protein, and background subtracted FRET ratios were normalized to the maximum signal obtained in the absence of test compound. These values were converted to a percent inhibition. Percent inhibition was determined for test compounds at 11 concentrations. The IC50, defined as the concentration of competing test compound needed to reduce specific binding of the probe by 50%, was calculated using the 4 parameter logistic equation to fit the data
STING WT: His-TVMV-S-hSTING(155-341)-H232R • […] […] […] […] LRQEEKEEV (SEQ ID NO:1)
Background: In TR-FRET formats the signal depends on donor and acceptor labels being close together.

For assay [4], the target named is T2, STING AQ (His-TVMV-S-hSTING(155-341)-G230A-R293Q) (Homo sapiens, UniProt Q86WV6, G230A/H232R/R293Q).
T2 construct: STING AQ: His-TVMV-S-hSTING(155-341)-G230A-R293Q
T2 sequence (Q86WV6 with tags, fused parts or gaps G230A/H232R/R293Q): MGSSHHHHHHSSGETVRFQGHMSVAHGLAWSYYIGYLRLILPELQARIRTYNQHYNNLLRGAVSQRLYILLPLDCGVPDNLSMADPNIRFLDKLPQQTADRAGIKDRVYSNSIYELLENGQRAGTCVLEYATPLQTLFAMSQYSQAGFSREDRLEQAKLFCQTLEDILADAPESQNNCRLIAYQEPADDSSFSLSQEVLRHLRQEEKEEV
Put plainly: STING HTRF binding assay (time resolved FRET competition), STING AQ. Conditions: 20 nM His-tagged STING AQ cytoplasmic domain, 40 nM fluorescein-labeled cGAMP analog probe, one hour; read-out: HTRF Binding Assays IC50 AQ. The procedure:
as §5
STING AQ: His-TVMV-S-hSTING(155-341)-G230A-R293Q • […] […] […] […] LRQEEKEEV (SEQ ID NO:2)

The source of these data is patent US10947263B2, “Cyclic dinucleotides as anticancer agents” (BRISTOL-MYERS SQUIBB COMPANY, priority 2017, dated 2021).

Structures are written as SMILES. Like-named read-outs stand apart in the source and are kept apart here.

T1 sequence (Q86WV6 with tags, fused parts or gaps H232R): as the sequence (Q86WV6 with tags, fused parts or gaps G230A/H232R/R293Q) above, with A99G, Q162R counted along it

A word on the EC50: it is the midpoint of the concentration-response curve. By IC50 is commonly meant the concentration that gives 50% inhibition. As for `Nc1ncnc2c1ncn2[C@@H]1O[C@@H]2COP(=O)(S)O[C@@H]3[C@H](F)[C@@H](COP(=O)(S)O[C@H]2[C@H]1F)O[C@H]3n1nnc2c([N+](=O)[O-])cccc21` (single isomer, unassigned) [Example 11-4], the EC50 was determined as 21.1 µM in assay [1] (20 hours) and 34.6 µM in assay [2] (20 hours). The IC50 in assay [3] came out at 150 nM; in assay [4], 20 nM.
As for `C=C1[C@H]2OP(=O)(S)OC[C@H]3O[C@@H](n4cnc5c(N)ncnc54)[C@H](F)[C@@H]3OP(=O)(S)OC[C@H]1O[C@H]2n1nnc2c(C(N)=O)cccc21` (single isomer, unassigned) [Example 22-1], the EC50 in assay [1] (Homo sapiens, THP1-Dual, 20 h) is 2.3 µM; in assay [2] (Homo sapiens, THP1-Dual, 20 h), 5.1 µM. Further, the IC50 in assay [3] and in assay [4] was 10 nM throughout.
Regarding `NC(=O)c1cccc2c1nnn2[C@@H]1O[C@@H]2COP(=O)(O)O[C@H]3[C@@H](F)[C@H](n4cnc5c(N)ncnc54)O[C@@H]3COP(=O)(S)O[C@@H]1[C@@H]2O` (single isomer, unassigned) [Example 4-2], the EC50 amounted to 0.7 µM in assay [1] (20 hours) and 1.7 µM in assay [2] (20 hours). Further, the IC50 worked out at 10 nM in assay [3] and 2 nM in assay [4].
For `O=[N+]([O-])c1cccc2c1nnn2[C@@H]1O[C@@H]2COP(=O)(S)O[C@H]3[C@@H](F)[C@H](n4cnc5c4ncn4ccnc54)O[C@@H]3COP(=O)(S)O[C@@H]1[C@@H]2O` (single isomer, unassigned) [Example 15-1], in that order: 1 µM, 2.1 µM, 20 nM and 10 nM.
For `NC(=O)c1cccc2c1nnn2[C@@H]1O[C@@H]2COP(=O)(S)O[C@H]3[C@@H](F)[C@H](n4cnc5c(N)ncnc54)O[C@@H]3COP(=O)(S)O[C@@H]1[C@@H]2F` (single isomer, unassigned) [Example 10-4] the same measures were 0.3 µM, 0.9 µM, 10 nM and 2 nM.
For the compound `C=C1[C@H]2OP(=O)(S)OC[C@H]3O[C@@H](n4cnc5c(N)ncnc54)[C@H](F)[C@@H]3OP(=O)(S)OC[C@H]1O[C@H]2n1nnc2c(C(N)=O)cccc21` (single isomer, unassigned) [Example 22-2], the concentration giving a half-maximal response (EC50) in assay [1] (20 hours) came out at 3.2 µM; in assay [2] (20 hours), 10 µM. Besides, the results for the IC50 in assay [3] and in assay [4] were 70 nM and 10 nM, respectively.
For `Nc1ncnc2c1ncn2[C@@H]1O[C@@H]2COP(=O)(S)O[C@@H]3[C@H](O)[C@@H](COP(=O)(S)O[C@H]2[C@H]1F)O[C@H]3n1nnc2c(C(F)(F)F)cccc21` (single isomer, unassigned) [Example 9-4], in that order: > 100 µM, > 100 µM, 12500 nM and 600 nM.
For `Nc1ncnc2c1ncn2[C@@H]1O[C@@H]2COP(=O)(S)O[C@@H]3[C@H](O)[C@@H](COP(=O)(S)O[C@H]2[C@H]1F)O[C@H]3n1nnc2c(C(F)(F)F)cccc21` (single isomer, unassigned) [Example 9-3] the same measures were 69.4 µM, > 100 µM, 900 nM and 40 nM.
As for `NC(=O)c1cccc2c1nnn2[C@@H]1O[C@@H]2COP(=O)(S)O[C@H]3[C@@H](F)[C@H](n4cnc5c(N)ncnc54)O[C@@H]3COP(=O)(S)O[C@@H]1[C@@H]2O` (single isomer, unassigned) [Example 8-3], the EC50 in assay [1] (20 hours) came out at 10 µM; in assay [2] (20 hours) it was 15.3 µM. Besides, the half-maximal inhibitory concentration (IC50) in assay [3] is 140 nM; in assay [4], 20 nM.
For `NC(=O)c1cccc2c1nnn2[C@@H]1O[C@@H]2COP(=O)(O)O[C@H]3[C@@H](F)[C@H](n4cnc5c4ncn4ccnc54)O[C@@H]3COP(=O)(S)O[C@@H]1[C@@H]2F` (single isomer, unassigned) [Example 16-2] the same measures were 12.7 µM, 73.9 µM, 210 nM and 10 nM.
For `Nc1ncnc2c1ncn2[C@@H]1O[C@@H]2COP(=O)(S)O[C@@H]3[C@H](O)[C@@H](COP(=O)(S)O[C@H]2[C@H]1F)O[C@H]3n1nnc2c([N+](=O)[O-])cccc21` (single isomer, unassigned) [Example 7-3] the same measures were 7.2 µM, 15.3 µM, 60 nM and 10 nM.
On to `Nc1ncnc2c1ncn2[C@@H]1O[C@@H]2COP(=O)(O)O[C@@H]3[C@H](O)[C@@H](COP(=O)(O)O[C@H]2[C@H]1O)O[C@H]3n1nnc2c(N)cccc21` [Example 21, (1R,6R,8R,9R,10S,15R,17R,18R)-17-(4-amino-1H-1,2,3-benzotriazol-1-yl)-8-(6-amino-9H-purin-9-yl)-3,9,12,18-tetrahydroxy-2,4,7,11,13,16-hexaoxa-3λ^5,12λ^5-diphosphatricyclo[13.2.1.0^6,10]octadecane-3,12-dione], for which the EC50 was > 100 µM in assay [1] (Homo sapiens, THP1-Dual, 20 h) and > 100 µM in assay [2] (Homo sapiens, THP1-Dual, 20 h). Also, the IC50 in assay [3] came to 1700 nM.
As to `NC(=O)c1cccc2c1nnn2[C@@H]1O[C@@H]2COP(=O)(O)O[C@H]3[C@@H](F)[C@H](n4cnc5c4ncn4ccnc54)O[C@@H]3COP(=O)(S)O[C@@H]1[C@@H]2F` (single isomer, unassigned) [Example 16-1], the EC50 worked out at 2.2 µM in assay [1] (20 hours) and 7.7 µM in assay [2] (20 hours). For the same compound, the concentration for half-maximal inhibition (IC50) stood at 90 nM in assay [3] and 10 nM in assay [4].
As to `Nc1ncnc2c1ncn2[C@@H]1O[C@@H]2COP(=O)(S)O[C@@H]3[C@H](F)[C@@H](COP(=O)(S)O[C@H]2[C@H]1F)O[C@H]3n1nnc2c([N+](=O)[O-])cccc21` (single isomer, unassigned) [Example 11-1], the results for the EC50 in assay [1] (20 hours) and in assay [2] (20 hours) were 1.2 µM and 2.1 µM, respectively. Besides, the IC50 is 10 nM in assay [3] and 2 nM in assay [4].
For `NC(=O)c1cccc2c1nnn2[C@@H]1O[C@@H]2COP(=O)(S)O[C@H]3[C@@H](F)[C@H](n4cnc5c(N)ncnc54)O[C@@H]3COP(=O)(S)O[C@@H]1[C@@H]2F` (single isomer, unassigned) [Example 10-1] the same measures were 1.33 µM, 2.22 µM, 20 nM and 5 nM.
As to `Nc1ncnc2c1ncn2[C@@H]1O[C@@H]2COP(=O)(S)O[C@@H]3[C@H](O)[C@@H](COP(=O)(O)O[C@H]2[C@H]1F)O[C@H]3n1nnc2c([N+](=O)[O-])cccc21` (single isomer, unassigned) [Example 5-2], the EC50 in assay [1] (20 hours) worked out at 5.6 µM; in assay [2] (20 hours), 13 µM. Moreover, the IC50 in assay [4] turned out to be 10 nM.
